Consider 19 compounds from article PMC3235172, “Distinct Expression Profiles and Different Functions of Odorant Binding Proteins in Nilaparvata lugens Stål” (PLoS ONE, 2011).

Where two headings read alike, the source gives them in different places. A value given as a limit tells only on which side of the number the result lay.

One assay deals with NlugOBP2 (Nilaparvata lugens, UniProt B6E9U2). Nature of the assay: Competitive fluorescence binding assay (1-NPN probe) with recombinant NlugOBP2. On the procedure: (§1) The excitation wavelength was 337 nm and the emission spectrum was recorded between 370 and 460 nm by a fluorescence spectrometer (Hitachi F-7000 Fluorescence Spectrophotometer, Japan) with a 1 cm light path quartz cuvette and 10 nm slits for both excitation and emission.

Another assay has as its target NlugOBP3 (Nilaparvata lugens, UniProt B6E9U3). The assay can be described thus: Competitive fluorescence binding assay (1-NPN probe) with recombinant NlugOBP3. On the procedure:
as §1

The target in the next assay is NlugOBP1 (Nilaparvata lugens, UniProt B6E9U1). Nature of the assay: Competitive fluorescence binding assay (1-NPN probe) with recombinant NlugOBP1. On the procedure: as §1
Where [1] appears, read: calculated from IC50, protein and 1-NPN at 2 µM, pH 7.4, read-out: OBP2 Ki.
The mark [2] stands for this setting: displacement of 1-NPN, protein and 1-NPN at 2 µM, 50 mM Tris-HCl pH 7.4, read-out: OBP2 IC50.
The mark [3] stands for this setting: calculated from IC50, protein and 1-NPN at 2 µM, pH 7.4, read-out: OBP3 Ki.
[4] abbreviates: displacement of 1-NPN, protein and 1-NPN at 2 µM, 50 mM Tris-HCl pH 7.4, read-out: OBP3 IC50.
The mark [5] stands for this setting: calculated from IC50, protein and 1-NPN at 2 µM, pH 7.4, read-out: OBP1 Ki.
Where [6] appears, read: displacement of 1-NPN, protein and 1-NPN at 2 µM, 50 mM Tris-HCl pH 7.4, read-out: OBP1 IC50.

Chain of NlugOBP1 (B6E9U1 entry or part of it): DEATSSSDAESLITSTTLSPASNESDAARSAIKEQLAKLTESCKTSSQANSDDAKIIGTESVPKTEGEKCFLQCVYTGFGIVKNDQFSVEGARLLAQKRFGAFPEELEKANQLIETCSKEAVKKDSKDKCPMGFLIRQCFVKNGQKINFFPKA
Chain of NlugOBP3 (B6E9U3 entry or part of it): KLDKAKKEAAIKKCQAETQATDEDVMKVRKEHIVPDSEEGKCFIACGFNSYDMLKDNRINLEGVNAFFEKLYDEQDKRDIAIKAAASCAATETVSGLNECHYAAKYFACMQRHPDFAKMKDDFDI
Chain of NlugOBP2 (B6E9U2 entry or part of it): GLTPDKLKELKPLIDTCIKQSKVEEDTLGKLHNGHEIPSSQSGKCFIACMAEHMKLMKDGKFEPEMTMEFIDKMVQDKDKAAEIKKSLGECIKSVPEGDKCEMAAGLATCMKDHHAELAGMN

On to `C=C1CC/C=C(\C)CC[C@@H]2[C@@H]1CC2(C)C` [Ligand 36, β-Caryophyllene], for which, at NlugOBP2, the IC50 turned out to be 30.1 µM and the Ki came out at 25.9 µM. Further, on NlugOBP3, the IC50 was 37.4 µM, the Ki turned out to be 26.7 µM and the “binding ability with NlugOBP3 (in words)” value is recorded as “considerable affinities”. Further, at NlugOBP1, the 50% inhibitory concentration (IC50) was over 50 µM and the Ki was over 50 µM.

For `CCCCCCCCCCCCCCCCC` [Ligand 30, Heptadecane], the inhibitory constant (Ki) on NlugOBP2 (setting [1]), on NlugOBP3 (setting [3]) and on NlugOBP1 (setting [5]) was over 50 µM throughout. For the same compound, the concentration for half-maximal inhibition (IC50) at NlugOBP2 (setting [2]), at NlugOBP3 (setting [4]) and on NlugOBP1 (setting [6]) was over 50 µM in each case.

For `O=Cc1ccccc1` [Ligand 14, Benzaldehyde], the IC50 at NlugOBP2 was 38.7 µM; on NlugOBP3, 41 µM; on NlugOBP1, over 50 µM. The figures for the Ki at NlugOBP2, at NlugOBP3 and at NlugOBP1 were 33.3 µM, 29.3 µM and over 50 µM, respectively.

`CC/C=C/CCO` [Ligand 4, (E)-3-Hexen-1-ol]: the IC50 on NlugOBP2 was over 50 µM; on NlugOBP3, 29.6 µM; at NlugOBP1, over 50 µM. For the same compound, the Ki was over 50 µM at NlugOBP2, 21.1 µM at NlugOBP3 and over 50 µM at NlugOBP1.

Take `CC1=CC[C@@H]2C[C@H]1C2(C)C` [Ligand 34, (+)-α-Pinene]: the IC50 was over 50 µM on NlugOBP2, 16.1 µM on NlugOBP3 and 36.4 µM at NlugOBP1. For the same compound, the Ki at NlugOBP2 is over 50 µM; at NlugOBP3, 11.5 µM; at NlugOBP1, 31.1 µM.

Turning to `CCCCCCCCCCCC=O` [Ligand 12, Dodecyl aldehyde], the inhibitory constant (Ki) at NlugOBP2 (setting [1]) was over 50 µM; at NlugOBP3 (setting [3]) it was 18.9 µM; on NlugOBP1 (setting [5]), 16.6 µM. The IC50 at NlugOBP2 (setting [2]) was over 50 µM; at NlugOBP3 (setting [4]) it was 26.5 µM; at NlugOBP1 (setting [6]) it was 19.5 µM.

As for `CC/C=C\CCOC(C)=O` [Ligand 22, (Z)-3-Hexenyl acetate], the values for the Ki at NlugOBP2 (setting [1]), on NlugOBP3 (setting [3]) and on NlugOBP1 (setting [5]) were 32.5 µM, 27.1 µM and over 50 µM, respectively. The results for the IC50 at NlugOBP2 (setting [2]), on NlugOBP3 (setting [4]) and at NlugOBP1 (setting [6]) were 37.8 µM, 38 µM and over 50 µM, respectively.

With `CCCCCOC(C)=O` [Ligand 18, Amyl acetate], the Ki at NlugOBP2 (setting [1]), at NlugOBP3 (setting [3]) and on NlugOBP1 (setting [5]) was over 50 µM each time. Moreover, the IC50 at NlugOBP2 (setting [2]), at NlugOBP3 (setting [4]) and at NlugOBP1 (setting [6]) was over 50 µM each time.

Consider `CC(C)=CCC/C(C)=C/CC/C(C)=C/CO` [Ligand 5, Farnesol], for which the “binding ability with NlugOBP2 (in words)” value at NlugOBP2 is “high binding ability”. Besides, the Ki at NlugOBP2 (setting [1]) is 19.8 µM; on NlugOBP3 (setting [3]), 4.9 µM; on NlugOBP1 (setting [5]), 19.5 µM. Besides, the IC50 is 23 µM on NlugOBP2 (setting [2]), 6.9 µM at NlugOBP3 (setting [4]) and 22.8 µM on NlugOBP1 (setting [6]). For the same compound, the “binding ability with NlugOBP3 (in words)” value on NlugOBP3 is “high binding ability”. Further, the “binding ability with NlugOBP1 (in words)” value on NlugOBP1 is on record as “high binding ability”.

For `C=C(C)[C@H]1CC=C(C)CC1` [Ligand 35, (R)-(+)-Limonene], the Ki on NlugOBP2 (setting [1]) was over 50 µM; at NlugOBP3 (setting [3]) it was 23.6 µM; at NlugOBP1 (setting [5]), 27.6 µM. Further, the values for the IC50 on NlugOBP2 (setting [2]), at NlugOBP3 (setting [4]) and at NlugOBP1 (setting [6]) were over 50 µM, 33.1 µM and 32.4 µM, respectively. Besides, on NlugOBP3, the “binding ability with NlugOBP3 (in words)” value was “considerable affinities”.

For the compound `CCC/C=C/C=O` [Ligand 13, (E)-2-Hexenal], on NlugOBP2, the IC50 was found to be 33.5 µM, the inhibition constant Ki is 28.8 µM and the “binding ability with NlugOBP2 (in words)” value is “can bind”. For the same compound, on NlugOBP3, the IC50 is 42 µM, the Ki was found to be 30 µM and the “binding ability with NlugOBP3 (in words)” value is reported as “could bind”. Besides, on NlugOBP1, the IC50 is over 50 µM, the Ki was over 50 µM and the “binding ability with NlugOBP1 (in words)” value is reported as “binds none”.

In the case of `CC1CCC(C(C)C)C(O)C1` (stereo not shown) [Ligand 10, Menthol], the IC50 at NlugOBP2, on NlugOBP3 and on NlugOBP1 was over 50 µM throughout. For the same compound, the Ki on NlugOBP2, on NlugOBP3 and on NlugOBP1 was over 50 µM each time.

As for `CCCCCCCCCCCC(C)=O` [Ligand 15, 2-Tridecanone], at NlugOBP2, the “binding ability with NlugOBP2 (in words)” value is reported as “relatively high binding abilities”. Also, the Ki was 37.1 µM on NlugOBP2 (setting [1]), 8.6 µM at NlugOBP3 (setting [3]) and 20.5 µM at NlugOBP1 (setting [5]). The half-inhibitory concentration (IC50) on NlugOBP2 (setting [2]) was determined as 43.2 µM; at NlugOBP3 (setting [4]), 12 µM; on NlugOBP1 (setting [6]) it was 24 µM. The “binding ability with NlugOBP3 (in words)” value at NlugOBP3 is given as “relatively high binding abilities”. Moreover, the “binding ability with NlugOBP1 (in words)” value at NlugOBP1 was “relatively high binding abilities”.

With `COC(=O)c1ccccc1` [Ligand 24, Methyl benzoate], the IC50 on NlugOBP2, on NlugOBP3 and at NlugOBP1 was over 50 µM throughout. The Ki on NlugOBP2, at NlugOBP3 and at NlugOBP1 was over 50 µM in each case.

Consider `CC(=O)OCCC(C)C` [Ligand 19, Isoamyl acetate], for which the Ki on NlugOBP2 (setting [1]) was over 50 µM; on NlugOBP3 (setting [3]), over 50 µM; on NlugOBP1 (setting [5]), 30.5 µM. Besides, the IC50 was over 50 µM on NlugOBP2 (setting [2]), over 50 µM at NlugOBP3 (setting [4]) and 35.7 µM at NlugOBP1 (setting [6]). In addition, on NlugOBP3, the “binding ability with NlugOBP3 (in words)” value was “none”. In addition, the “binding ability with NlugOBP1 (in words)” value at NlugOBP1 is “some affinities”.

Regarding `CC(C)c1ccccc1` [Ligand 38, Cumene], the IC50 was 39.2 µM on NlugOBP2, 37.2 µM on NlugOBP3 and over 50 µM at NlugOBP1. The inhibition constant (Ki) at NlugOBP2 is 33.7 µM; on NlugOBP3, 26.6 µM; on NlugOBP1 it was over 50 µM.

With `COC(C)(C)CCC[C@H](C)C/C=C/C(C)=C/C(=O)OC(C)C` (racemic) [Ligand 39, Methoprene], at NlugOBP2, the IC50 was 21.1 µM, the inhibitory constant (Ki) came out at 18.1 µM and the “binding ability with NlugOBP2 (in words)” value was “high binding ability”. At NlugOBP3, the IC50 turned out to be 14.7 µM, the inhibition constant (Ki) was 10.5 µM and the “binding ability with NlugOBP3 (in words)” value is recorded as “high binding ability”. At NlugOBP1, the IC50 came to 19.4 µM, the inhibition constant (Ki) was found to be 16.6 µM and the “binding ability with NlugOBP1 (in words)” value is reported as “high binding ability”.

Consider `CCCCCCCCCCCCCC(C)=O` [Ligand 16, 2-Pentadecanone], for which, on NlugOBP2, the “binding ability with NlugOBP2 (in words)” value is “relatively high binding abilities”. Besides, the Ki on NlugOBP2 (setting [1]) was 17 µM; at NlugOBP3 (setting [3]) it was 9.6 µM; at NlugOBP1 (setting [5]), 25.3 µM. Further, the IC50 on NlugOBP2 (setting [2]) turned out to be 19.8 µM; on NlugOBP3 (setting [4]), 13.5 µM; at NlugOBP1 (setting [6]), 29.7 µM. Also, the “binding ability with NlugOBP3 (in words)” value at NlugOBP3 is “relatively high binding abilities”. Moreover, the “binding ability with NlugOBP1 (in words)” value on NlugOBP1 is recorded as “relatively high binding abilities”.

With `CCCCCCCCCCCCCC` [Ligand 32, Tetradecane], the Ki at NlugOBP2 (setting [1]), on NlugOBP3 (setting [3]) and at NlugOBP1 (setting [5]) was over 50 µM in each case. Also, the IC50 at NlugOBP2 (setting [2]), on NlugOBP3 (setting [4]) and at NlugOBP1 (setting [6]) was over 50 µM throughout.

The IC50 is the concentration at which inhibition is half-maximal. As a reminder, the Ki is a dissociation constant, usually derived from enzyme kinetics or from competition with a known ligand.
